Experimental data reported in patent US5175100A, “Stereospecific resolution by hydrolysis of esters of 2-arylpropionic acids by liver enzymes” (Rhone-Poulenc, Inc., priority 1991, dated 1992).

Experiments:
Format in all cases: biochemical
[1] = test system: Liver acetone powder from Guinea Pig; assay: Hydrolysis of ketoprofen methyl ester by guinea pig liver acetone powder; conditions: Guinea Pig powder 10 mg, 50 mg ester, pH 7.0, room temperature, 24 hours
Description: (§1) A solution of 50 mg of ketoprofen methyl ester in 0.2 ml of ethanol was added to 10 mg of each of liver acetone powder from various animal sources (described in Table 1) in 5 ml of 0.1M potassium phosphate buffer (pH 7.0) After shaking at room temperature for 24 hours, the reaction mixtures were acidified to pH 2.0 with 6(N) HCl and extracted with 10 ml of ethyl acetate. A portion of the ethyl acetate extract was analyzed by HPLC on a Partisil 5 ODS-3 RAC column (9.4 mm×100 mm, Whatman) using a mixture of methanol and 10 mM ammonium dihydrogen phospate (9:1) and monitored by UV at 254 nm to determine the percentages of acid produced in the reaction.

[2] = test system: Liver acetone powder from Trout; assay: Hydrolysis of ketoprofen methyl ester by trout liver acetone powder; conditions: Trout powder 10 mg, 50 mg ester, pH 7.0, room temperature, 24 hours
Description: as §1

[3] = test system: Liver acetone powder from Lemon Shark; assay: Hydrolysis of ketoprofen methyl ester by lemon shark liver acetone powder; conditions: Lemon Shark powder 10 mg, 50 mg ester, pH 7.0, room temperature, 24 hours
Description: as §1

[4] = test system: Liver acetone powder from Rabbit; assay: Hydrolysis of ketoprofen methyl ester by rabbit liver acetone powder
Description: as §1
(§2) To determine the percentage of R- and S-acid, a portion of the ethyl acetate extract was converted to the amide derivative of the acid produced with R(+)-1-phenylethylamine as follows. The ethyl acetate extract (5 ml) was dried over sodium sulfate, filtered and cooled to 0° C. To the cold solution was added 0.2 ml of N-methylmorpholine followed by 0.2 ml of isobutyl chloroformate. After gentle shaking at 0° C. for 10 minutes, 0.2 ml of R(+)-1-phenylethylamine was added and the shaking was continued at 0° C. for 5 minutes and at room temperature for another 5 minutes. The reaction mixture was washed successively with water (5 ml), 1(N) HCl (5 ml), and water (5 ml) to provide the amide derivative in ethyl acetate solution. The ethyl acetate solution of the amide derivative was then analyzed by HPLC on the same column and same solvent mixture but with a different composition, i.e., a ratio of 6:4, and monitored by UV to determine the percentages of R- acid and S-acids produced by hydrolysis. The enantiomeric excess (EE) is defined as the difference in percent between the percent R- acid and the percent S-acid, the higher enantiomer being reported in the parenthesis in Table I.

[5] = test system: Liver acetone powder from Eel*; assay: Hydrolysis of ketoprofen methyl ester by eel (Anguilla anguilla) liver acetone powder; conditions: Eel (Anguilla anguilla) powder 10 mg, 50 mg ester, pH 7.0, room temperature, 24 hours
Description: as §1

[6] = test system: Liver acetone powder from Seal; assay: Hydrolysis of ketoprofen methyl ester by seal liver acetone powder
Description: as §1, §2

[7] = test system: Liver acetone powder from Eel**; assay: Hydrolysis of ketoprofen methyl ester by eel (Electrophorous electricus) liver acetone powder; conditions: Eel (Electrophorous electricus) powder 10 mg, 50 mg ester, pH 7.0, room temperature, 24 hours
Description: as §1

[8] = test system: Liver acetone powder from Goat; assay: Hydrolysis of ketoprofen methyl ester by goat liver acetone powder
Description: as §1, §2

[9] = test system: Liver acetone powder from Salmon; assay: Hydrolysis of ketoprofen methyl ester by salmon liver acetone powder; conditions: Salmon powder 10 mg, 50 mg ester, pH 7.0, room temperature, 24 hours
Description: as §1

[10] = test system: Liver acetone powder from Turtle; assay: Hydrolysis of ketoprofen methyl ester by turtle liver acetone powder; conditions: Turtle powder 10 mg, 50 mg ester, pH 7.0, room temperature, 24 hours
Description: as §1

[11] = test system: Liver acetone powder from Horse; assay: Hydrolysis of ketoprofen methyl ester by horse liver acetone powder
Description: as §1, §2

[12] = test system: Liver acetone powder from Cat; assay: Hydrolysis of ketoprofen methyl ester by cat liver acetone powder
Description: as §1, §2

[13] = test system: Liver acetone powder from Rat; assay: Hydrolysis of ketoprofen methyl ester by rat liver acetone powder
Description: as §1, §2

[14] = test system: Liver acetone powder from Sheep; assay: Hydrolysis of ketoprofen methyl ester by sheep liver acetone powder
Description: as §1, §2

[15] = test system: Liver acetone powder from Calf; assay: Hydrolysis of ketoprofen esters by calf liver acetone powder
Description: as §1, §2
Several esters of ketoprofen (0.2 millimole) with various alkyl groups of varying chain length were hydrolyzed using liver acetone powders from bovine, calf and dog by the procedure described in Example 1. The reaction mixtures were analyzed by the same procedures as described in Example 1 and the results obtained are summarized in Table II.

[16] = test system: Liver acetone powder from Lungfish; assay: Hydrolysis of ketoprofen methyl ester by lungfish liver acetone powder; conditions: Lungfish powder 10 mg, 50 mg ester, pH 7.0, room temperature, 24 hours
Description: as §1

[17] = test system: Liver acetone powder from Pigeon; assay: Hydrolysis of ketoprofen methyl ester by pigeon liver acetone powder
Description: as §1, §2

[18] = test system: Liver acetone powder from Mouse; assay: Hydrolysis of ketoprofen methyl ester by mouse liver acetone powder
Description: as §1, §2

[19] = Rabbit powder 10 mg, 50 mg ester, pH 7.0, room temperature, 24 hours
[20] = Seal powder 10 mg, 50 mg ester, pH 7.0, room temperature, 24 hours
[21] = Goat powder 10 mg, 50 mg ester, pH 7.0, room temperature, 24 hours
[22] = Horse powder 10 mg, 50 mg ester, pH 7.0, room temperature, 24 hours
[23] = Cat powder 10 mg, 50 mg ester, pH 7.0, room temperature, 24 hours
[24] = Rat powder 10 mg, 50 mg ester, pH 7.0, room temperature, 24 hours
[25] = Sheep powder 10 mg, 50 mg ester, pH 7.0, room temperature, 24 hours
[26] = Calf powder 10 mg, 50 mg ester, pH 7.0, room temperature, 24 hours
[27] = Calf powder, 0.2 millimole ester, procedure of Example 1
[28] = Pigeon powder 10 mg, 50 mg ester, pH 7.0, room temperature, 24 hours
[29] = Mouse powder 10 mg, 50 mg ester, pH 7.0, room temperature, 24 hours

**Q.** Which results are given for `COC(=O)C(C)c1cccc(C(=O)c2ccccc2)c1` (stereo not shown) [Methyl Ester of Ketoprofen, ketoprofen methyl ester]?
**A.** Percentage of acid [1]: 0.8%; Percentage of acid [2]: 0.7%; Percentage of acid [3]: 0.6%; Percentage of Acid R-acid [4, 19]: 46.1%; Percentage of Acid S-acid [4, 19]: 53.9%; Percentage of acid [4, 19]: 54.9%; Percentage EE of acid (R or S) ([4]; Rabbit powder, Table 1, higher enantiomer (S)): 7.8%; Percentage of acid [5]: 3.0%; Percentage of Acid R-acid [6, 20]: 48.9%; Percentage of Acid S-acid [6, 20]: 51.1%; Percentage of acid [6, 20]: 14.3%; Percentage EE of acid (R or S) ([6]; Seal powder, Table 1, higher enantiomer (S)): 2.2%; Percentage of acid [7]: 1.1%; Percentage of Acid R-acid [8, 21]: 42.3%; Percentage of Acid S-acid [8, 21]: 57.7%; Percentage of acid [8, 21]: 15.5%; Percentage EE of acid (R or S) ([8]; Goat powder, Table 1, higher enantiomer (S)): 15.4%; Percentage of acid [9]: 0.6%; Percentage of acid [10]: 0.6%; Percentage of Acid R-acid [11, 22]: 62.7%; Percentage of Acid S-acid [11, 22]: 37.3%; Percentage of acid [11, 22]: 24.1%; Percentage EE of acid (R or S) ([11]; Horse powder, Table 1, higher enantiomer (R)): 25.4%; Percentage of Acid R-acid [12, 23]: 64.1%; Percentage of Acid S-acid [12, 23]: 35.9%; Percentage of acid [12, 23]: 7.2%; Percentage EE of acid (R or S) ([12]; Cat powder, Table 1, higher enantiomer (R)): 28.2%; Percentage of Acid R-acid [13, 24]: 52.7%; Percentage of Acid S-acid [13, 24]: 47.3%; Percentage of acid [13, 24]: 7.5%; Percentage EE of acid (R or S) ([13]; Rat powder, Table 1, higher enantiomer (R)): 5.4%; Percentage of Acid R-acid [14, 25]: 46.5%; Percentage of Acid S-acid [14, 25]: 53.5%; Percentage of acid [14, 25]: 18.1%; Percentage EE of acid (R or S) ([14]; Sheep powder, Table 1, higher enantiomer (S)): 7.0%; Percentage of Acid R-acid [15, 26]: 71.6%; Percentage of Acid S-acid [15, 26]: 28.4%; Percentage of acid [15, 26]: 5.7%; Acid Produced (%) [15, 27]: 7.3%; EE(%) of R-Acid [15, 27]: 45.6%; Percent of Acid R-Acid [15, 27]: 72.8%; Percent of Acid S-Acid [15, 27]: 27.2%; Percentage EE of acid (R or S) ([15]; Calf powder, Table 1, higher enantiomer (R)): 43.2%; Percentage of acid [16]: 3.2%; Percentage of Acid R-acid [17, 28]: 66.7%; Percentage of Acid S-acid [17, 28]: 33.3%; Percentage of acid [17, 28]: 18.0%; Percentage EE of acid (R or S) ([17]; Pigeon powder, Table 1, higher enantiomer (R)): 33.4%; Percentage of Acid R-acid [18, 29]: 49.0%; Percentage of Acid S-acid [18, 29]: 51.0%; Percentage of acid [18, 29]: 9.4%; Percentage EE of acid (R or S) ([18]; Mouse powder, Table 1, higher enantiomer (R)): 2.0%
